Laboratory results from PubChem BioAssay AID256 (DTP/NCI, 2004).
Values joined by “and” are separate entries in the source; they are usually repeats but may differ in a detail not shown here. Equal values may be shown once. Inconclusive results and toxic doses are left out. How the source made its calls: active means survival T/C of 150% or more; inactive means T/C below 125% in these data.

System: CD2F1 mice, L1210 leukemia ip, survival T/C
Assay: NCI In Vivo Anticancer Drug Screen. Data for tumor model L1210 Leukemia (intraperitoneal) in CD2F1 (CDF1) mice
Conditions: higher = longer survival
Procedure, shortened: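 Implant tumor; dose compound or vehicle; measure endpoint in both groups; report treated divided by control.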

[1] = endpoint: mean survival time, dose: 100.0 mg/kg/injection, schedule: Q01DX009 (ip), vehicle: Klucel (hydroxypropylcellulose) (HPC)
[2] = endpoint: mean survival time, dose: 200.0 mg/kg/injection, schedule: Q01DX009 (ip), vehicle: Klucel (hydroxypropylcellulose) (HPC)

Measured: T/C

CC(C(=O)O)N(C)N=O (centres undefined)
inactive: endpoint: mean survival time, dose: 50.0 mg/kg/injection, schedule: Q01DX009 (ip), vehicle: Klucel (hydroxypropylcellulose) (HPC) 104 % of control | [1] 93 % of control | [2] 86 % of control

CC1(C)CCC2(C(=O)O)CCC3(C)C(=CCC4C5(C)CC(O)C(OC6OC(CO)C(O)C(O)C6O)C(C)(CO)C5C(O)CC43C)C2C1 (centres undefined)
inactive: endpoint: mean survival time, dose: 50.0 mg/kg/injection, schedule: Q04DX002 (ip), vehicle: saline with Tween-80 102 % of control

CCN(C(=O)Nc1cc(OC)ccc1OC)c1ccc(Cl)cc1
inactive: endpoint: mean survival time, dose: 100.0 mg/kg/injection, schedule: Q01DX009 (ip), vehicle: saline with Tween-80 96 % of control | endpoint: mean survival time, dose: 200.0 mg/kg/injection, schedule: Q01DX009 (ip), vehicle: saline with Tween-80 96 % of control | endpoint: mean survival time, dose: 400.0 mg/kg/injection, schedule: Q01DX009 (ip), vehicle: saline with Tween-80 93 % of control

O=C(O)c1cc(C(=O)O)c(C(=O)O)cc1C(=O)O.[NH2-].[NH2-].[NH2-].[NH2-].[Pt+2].[Pt+2]
inactive: endpoint: mean survival time, dose: 0.2 mg/kg/injection, schedule: Q04DX003 (ip), vehicle: water 124 % of control and 106 % of control | endpoint: mean survival time, dose: 0.39 mg/kg/injection, schedule: Q04DX003 (ip), vehicle: water 115 % of control and 119 % of control | endpoint: mean survival time, dose: 2.0 mg/kg/injection, schedule: Q04DX003 (ip), vehicle: water 98 % of control | endpoint: mean survival time, dose: 4.0 mg/kg/injection, schedule: Q04DX003 (ip), vehicle: water 97 % of control | endpoint: mean survival time, dose: 8.0 mg/kg/injection, schedule: Q04DX003 (ip), vehicle: water 106 % of control | endpoint: mean survival time, dose: 16.0 mg/kg/injection, schedule: Q04DX003 (ip), vehicle: water 110 % of control | endpoint: median survival time, dose: 0.12 mg/kg/injection, schedule: Q01DX009 (ip), vehicle: water 97 % of control | endpoint: median survival time, dose: 0.25 mg/kg/injection, schedule: Q01DX009 (ip), vehicle: water 97 % of control | endpoint: median survival time, dose: 0.5 mg/kg/injection, schedule: Q01DX009 (ip), vehicle: water 97 % of control | endpoint: median survival time, dose: 1.0 mg/kg/injection, schedule: Q01DX009 (ip), vehicle: water 92 % of control and 100 % of control and 112 % of control | endpoint: median survival time, dose: 2.0 mg/kg/injection, schedule: Q01DX009 (ip), vehicle: water 100 % of control and 101 % of control and 109 % of control | endpoint: median survival time, dose: 4.0 mg/kg/injection, schedule: Q01DX009 (ip), vehicle: water 124 % of control and 105 % of control | endpoint: median survival time, dose: 8.0 mg/kg/injection, schedule: Q01DX009 (ip), vehicle: water 124 % of control and 111 % of control (2×) | endpoint: median survival time, dose: 16.0 mg/kg/injection, schedule: Q01DX009 (ip), vehicle: water 96 % of control | endpoint: median survival time, dose: 32.0 mg/kg/injection, schedule: Q01DX009 (ip), vehicle: water 90 % of control

CCOC(=O)C(=O)Nc1c(C)noc1N
inactive: endpoint: mean survival time, dose: 100.0 mg/kg/injection, schedule: Q01DX001 (ip), vehicle: saline with Tween-80 109 % of control | [1] 93 % of control | endpoint: mean survival time, dose: 200.0 mg/kg/injection, schedule: Q01DX001 (ip), vehicle: saline with Tween-80 104 % of control | [2] 93 % of control | endpoint: mean survival time, dose: 400.0 mg/kg/injection, schedule: Q01DX001 (ip), vehicle: saline with Tween-80 97 % of control | endpoint: mean survival time, dose: 400.0 mg/kg/injection, schedule: Q01DX009 (ip), vehicle: Klucel (hydroxypropylcellulose) (HPC) 91 % of control

CCC(O)C[As](=O)(O)c1ccccc1OC (centres undefined)
inactive: endpoint: mean survival time, dose: 6.25 mg/kg/injection, schedule: Q04DX003 (ip), vehicle: saline with Tween-80 97 % of control | endpoint: mean survival time, dose: 12.5 mg/kg/injection, schedule: Q04DX003 (ip), vehicle: saline with Tween-80 97 % of control | endpoint: mean survival time, dose: 25.0 mg/kg/injection, schedule: Q04DX003 (ip), vehicle: saline with Tween-80 103 % of control

CC(C)(C)c1ccc(OC(=S)c2ccccc2)cc1
inactive: endpoint: mean survival time, dose: 100.0 mg/kg/injection, schedule: Q04DX002 (ip), vehicle: saline with Tween-80 104 % of control | endpoint: mean survival time, dose: 200.0 mg/kg/injection, schedule: Q04DX002 (ip), vehicle: saline with Tween-80 89 % of control | endpoint: mean survival time, dose: 400.0 mg/kg/injection, schedule: Q04DX002 (ip), vehicle: saline with Tween-80 89 % of control
